This passage reports T/C results from PubChem BioAssay AID330 (DTP/NCI, 2004).

This assay has as its system P388 leukemia ip, CD2F1 mice, survival T/C. As to the kind of experiment: NCI In Vivo Anticancer Drug Screen. Data for tumor model P388 Leukemia (intraperitoneal) in CD2F1 (CDF1) mice. The following applies: endpoint: median survival time, higher = longer survival. In short, it runs like this:
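Mice carrying the transplanted tumor received test compound or vehicle. Survival was recorded in each group, and the value is the treated-group measurement divided by that of the vehicle-treated control group.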

The mark [1] stands for this setting: dose: 60.0 mg/kg/injection, schedule: Q01DX005 (ip), vehicle: saline with Tween-80.
[2] abbreviates: dose: 120.0 mg/kg/injection, schedule: Q01DX005 (ip), vehicle: saline with Tween-80.
Setting [3] is: dose: 240.0 mg/kg/injection, schedule: Q01DX005 (ip), vehicle: saline with Tween-80.
Where [4] appears, read: dose: 6.25 mg/kg/injection, schedule: Q01DX009 (ip), vehicle: saline with Tween-80.
Setting [5] is: dose: 12.5 mg/kg/injection, schedule: Q01DX009 (ip), vehicle: saline with Tween-80.
The mark [6] stands for this setting: dose: 25.0 mg/kg/injection, schedule: Q01DX009 (ip), vehicle: saline with Tween-80.
Setting [7] is: dose: 50.0 mg/kg/injection, schedule: Q01DX009 (ip), vehicle: saline with Tween-80.
Where [8] appears, read: dose: 100.0 mg/kg/injection, schedule: Q01DX001 (ip), vehicle: Klucel (hydroxypropylcellulose) (HPC).
Setting [9] is: dose: 200.0 mg/kg/injection, schedule: Q01DX001 (ip), vehicle: Klucel (hydroxypropylcellulose) (HPC).
[10] abbreviates: dose: 400.0 mg/kg/injection, schedule: Q01DX001 (ip), vehicle: Klucel (hydroxypropylcellulose) (HPC).
Setting [11] is: dose: 50.0 mg/kg/injection, schedule: Q01DX005 (ip), vehicle: saline with Tween-80.
The mark [12] stands for this setting: dose: 100.0 mg/kg/injection, schedule: Q01DX005 (ip), vehicle: saline with Tween-80.
Where [13] appears, read: dose: 200.0 mg/kg/injection, schedule: Q01DX005 (ip), vehicle: saline with Tween-80.
Where [14] appears, read: dose: 100.0 mg/kg/injection, schedule: Q04DX003 (ip), vehicle: saline with Tween-80.
Where [15] appears, read: dose: 200.0 mg/kg/injection, schedule: Q04DX003 (ip), vehicle: saline with Tween-80.
Where [16] appears, read: dose: 400.0 mg/kg/injection, schedule: Q04DX003 (ip), vehicle: saline with Tween-80.
Setting [17] is: dose: 100.0 mg/kg/injection, schedule: Q01DX009 (ip), vehicle: saline with Tween-80.
The mark [18] stands for this setting: dose: 200.0 mg/kg/injection, schedule: Q01DX009 (ip), vehicle: saline with Tween-80.

“And” between values parts separate entries of the source, which are not always exact repeats. Equal values may be shown once. Toxic doses and inconclusive results are not listed.

For `O=C1N/C(=N/OCc2ccccc2)C(F)C(NOCc2ccccc2)N1` (stereo unspecified), the T/C is 96 % of control (dose: 50.0 mg/kg/injection, schedule: Q01DX009 (ip), vehicle: Klucel (hydroxypropylcellulose) (HPC)); 101 % of control (dose: 100.0 mg/kg/injection, schedule: Q01DX009 (ip), vehicle: Klucel (hydroxypropylcellulose) (HPC)); 97 % of control (dose: 200.0 mg/kg/injection, schedule: Q01DX009 (ip), vehicle: Klucel (hydroxypropylcellulose) (HPC)).

For the molecule `Cc1[nH]c2ccc(N(C)C)cc2c(=O)c1CN(C)Cc1c(C)[nH]c2ccc(N(C)C)cc2c1=O`, the T/C under setting [1] was 99 % of control, the T/C under setting [2] was 100 % of control and the T/C under setting [3] is 100 % of control.

Take `CC1(C)CCCC12C=NCC2` (stereo unspecified): the T/C is, setting by setting: under setting [4], 99 % of control; under setting [5], 95 % of control; under setting [6], 102 % of control; under setting [7], 101 % of control.

On to `O=C(CCCNC(=O)OCc1ccccc1)OCc1ccc2c(c1)C(=O)c1ccccc1C2=O`, for which the T/C runs as follows: under setting [8], 89 % of control; under setting [9], 88 % of control; under setting [10], 86 % of control.

Regarding `COC(=O)C1=NOC(Cc2ccccc2)C1` (stereo unspecified), the T/C was 100 % of control under setting [1], 114 % of control under setting [2] and 96 % of control under setting [3].

Consider `CC(C)C/C=C/CCCCCCCCCC(=O)NCC(=O)NC1C(C)OC(Nc2ncnc3nc[nH]c23)C(O)C1O` (stereo unspecified), for which the T/C is 112 % of control and 123 % of control (2×) (dose: 0.5 mg/kg/injection, schedule: Q01DX009 (ip), vehicle: water); 101 % of control and 103 % of control and 121 % of control (dose: 1.0 mg/kg/injection, schedule: Q01DX009 (ip), vehicle: water); 155 % of control (dose: 2.0 mg/kg/injection, schedule: Q01DX009 (ip), vehicle: water); 123 % of control and 87 % of control (dose: 4.0 mg/kg/injection, schedule: Q01DX009 (ip), vehicle: water); 156 % of control and 178 % of control (dose: 8.0 mg/kg/injection, schedule: Q01DX009 (ip), vehicle: water).

Consider `COc1ccc(S(=O)(=O)N/N=C\c2cccc([N+](=O)[O-])c2O)cc1OC`, for which the T/C runs as follows: under setting [11], 102 % of control; under setting [12], 99 % of control; under setting [13], 101 % of control.

Consider `CCOP(=O)(OCC)/C(C#N)=C\c1ccc(O)c(OC)c1`, for which the T/C was 110 % of control under setting [14], 100 % of control under setting [15] and 100 % of control under setting [16].

As to `CN1C2CCC1CC(OC(=O)/C=C/C(=O)OC1CC3CCC(C1)N3C)C2` (stereo unspecified), the T/C by setting is: (dose: 60.0 mg/kg/injection, schedule: Q01DX005 (ip), vehicle: suspension in saline) 91 % of control; (dose: 120.0 mg/kg/injection, schedule: Q01DX005 (ip), vehicle: suspension in saline) 91 % of control.

Consider `Nc1nc(N)c2cc(CNc3ccc(Cl)c(Cl)c3)ccc2n1`, for which the T/C is 107 % of control under setting [4], 110 % of control under setting [5] and 109 % of control under setting [6].

In the case of `Nc1ccc(S(=O)(=O)n2c(=O)oc3cc(Br)ccc32)cc1`, the T/C was 99 % of control (dose: 25.0 mg/kg/injection, schedule: Q04DX002 (ip), vehicle: Klucel (hydroxypropylcellulose) (HPC)); 99 % of control (dose: 50.0 mg/kg/injection, schedule: Q04DX002 (ip), vehicle: Klucel (hydroxypropylcellulose) (HPC)); 100 % of control and 93 % of control (dose: 100.0 mg/kg/injection, schedule: Q04DX002 (ip), vehicle: Klucel (hydroxypropylcellulose) (HPC)).

For the molecule `C[N+]12OC3CCC(O)CC1CCCC2C3` (stereo unspecified), the T/C (dose: 100.0 mg/kg/injection, schedule: Q01DX001 (ip), vehicle: water) is 100 % of control.

For `CC(C)(C)C(=O)CC(=O)C(C)(C)C.CC(C)(C)C(=O)CC(=O)C(C)(C)C.[Cu]`, the T/C runs as follows: (dose: 4.75 mg/kg/injection, schedule: Q01DX009 (ip), vehicle: saline with Tween-80) 104 % of control; (dose: 9.5 mg/kg/injection, schedule: Q01DX009 (ip), vehicle: saline with Tween-80) 95 % of control; (dose: 19.0 mg/kg/injection, schedule: Q01DX009 (ip), vehicle: saline with Tween-80) 95 % of control.

Regarding `O=[N+]([O-])c1ccc(N(CCO)CCO)c2c1no[n+]2[O-]`, the T/C was 117 % of control (dose: 3.12 mg/kg/injection, schedule: Q01DX005 (ip), vehicle: saline with Tween-80); 122 % of control (dose: 6.25 mg/kg/injection, schedule: Q01DX005 (ip), vehicle: saline with Tween-80); 111 % of control (dose: 8.0 mg/kg/injection, schedule: Q04DX003 (ip), vehicle: saline); 121 % of control (dose: 16.0 mg/kg/injection, schedule: Q04DX003 (ip), vehicle: saline).

Take `C[n+]1cc2c3ccccc3ccc2c2ccccc21`: the T/C (dose: 12.5 mg/kg/injection, schedule: Q04DX003 (ip), vehicle: distilled water + Tween-80) was 113 % of control and the T/C (dose: 25.0 mg/kg/injection, schedule: Q04DX003 (ip), vehicle: distilled water + Tween-80) was 105 % of control.

Turning to `COc1cc2c(c(OC)c1OC)-c1cc3c(cc1[C@@H](OC(C)=O)[C@@H]1COC(=O)[C@H]1C2)OCO3`, the T/C is, setting by setting: (dose: 1.25 mg/kg/injection, schedule: Q01DX009 (ip), vehicle: Klucel (hydroxypropylcellulose) (HPC)) 100 % of control; (dose: 2.5 mg/kg/injection, schedule: Q01DX009 (ip), vehicle: Klucel (hydroxypropylcellulose) (HPC)) 111 % of control; (dose: 5.0 mg/kg/injection, schedule: Q01DX009 (ip), vehicle: Klucel (hydroxypropylcellulose) (HPC)) 95 % of control; (dose: 10.0 mg/kg/injection, schedule: Q01DX009 (ip), vehicle: Klucel (hydroxypropylcellulose) (HPC)) 97 % of control.

In the case of `CC(C)CN(CC(C)C)c1nn[nH]n1`, the T/C is 103 % of control under setting [11], 100 % of control under setting [12] and 103 % of control under setting [13].

Regarding `C(CCCSC1=NCCN1)CCSC1=NCCN1`, the T/C runs as follows: (dose: 50.0 mg/kg/injection, schedule: Q01DX009 (ip), vehicle: saline) 103 % of control; (dose: 100.0 mg/kg/injection, schedule: Q01DX009 (ip), vehicle: saline) 100 % of control.

Take `CCCC#CC(=O)OC`: the T/C runs as follows: under setting [7], 97 % of control; under setting [17], 100 % of control; under setting [18], 106 % of control.

For the molecule `CCOC(=O)CNC(=O)c1cc2c(cn1)[nH]c1ccccc12`, the T/C runs as follows: under setting [1], 93 % of control; under setting [2], 86 % of control.

For `CN(CCC(C#N)c1ccccc1)Cc1ccccc1` (stereo unspecified), the T/C by setting is: (dose: 50.0 mg/kg/injection, schedule: Q01DX005 (ip), vehicle: Klucel (hydroxypropylcellulose) (HPC)) 92 % of control; (dose: 100.0 mg/kg/injection, schedule: Q01DX005 (ip), vehicle: Klucel (hydroxypropylcellulose) (HPC)) 101 % of control.

Regarding `N#Cc1c(Cl)cccc1N1CCSCC1`, the T/C was 94 % of control (dose: 60.0 mg/kg/injection, schedule: Q01DX005 (ip), vehicle: Klucel (hydroxypropylcellulose) (HPC)); 102 % of control (dose: 120.0 mg/kg/injection, schedule: Q01DX005 (ip), vehicle: Klucel (hydroxypropylcellulose) (HPC)); 100 % of control (dose: 240.0 mg/kg/injection, schedule: Q01DX005 (ip), vehicle: Klucel (hydroxypropylcellulose) (HPC)).

With `FC(F)(F)c1cccc(CSCc2c(CSCc3cccc(C(F)(F)F)c3)c(CSCc3cccc(C(F)(F)F)c3)c(CSCc3cccc(C(F)(F)F)c3)c(CSCc3cccc(C(F)(F)F)c3)c2CSCc2cccc(C(F)(F)F)c2)c1`, the T/C runs as follows: under setting [7], 104 % of control; under setting [17], 98 % of control; under setting [18], 97 % of control.

Regarding `Cc1ccc2c(c1)Sc1ccc3ccccc3c1N2`, the T/C by setting is: under setting [17], 100 % of control; under setting [14], 90 % of control; under setting [18], 109 % of control; under setting [15], 100 % of control; (dose: 400.0 mg/kg/injection, schedule: Q01DX009 (ip), vehicle: saline with Tween-80) 113 % of control; under setting [16], 100 % of control.

`CC(C)(C)c1nnc2cccc(Cl)n12`: the T/C under setting [8] was 100 % of control, the T/C under setting [9] is 99 % of control and the T/C under setting [10] is 103 % of control.
